Laboratory results taken from ChEMBL document CHEMBL5230155, “Recent contributions of quinolines to antimalarial and anticancer drug discovery research” (Eur J Med Chem, 2021).
In brackets after ≈: the same amount, converted by molar mass. Each block holds one compound with its values, some of them ahead of it.

What was measured:
[1] = molecular target: Hepatocyte growth factor receptor (Homo sapiens, UniProt P08581); assay: Inhibition of c-Met (unknown origin)
[2] = molecular target: Lysine-specific demethylase 6B (Homo sapiens) (UniProt O15054); assay: Inhibition of JMJD3 (unknown origin) at 25 uM relative to control
Sequence of Lysine-specific demethylase 6B (Homo sapiens) (O15054 whole entry): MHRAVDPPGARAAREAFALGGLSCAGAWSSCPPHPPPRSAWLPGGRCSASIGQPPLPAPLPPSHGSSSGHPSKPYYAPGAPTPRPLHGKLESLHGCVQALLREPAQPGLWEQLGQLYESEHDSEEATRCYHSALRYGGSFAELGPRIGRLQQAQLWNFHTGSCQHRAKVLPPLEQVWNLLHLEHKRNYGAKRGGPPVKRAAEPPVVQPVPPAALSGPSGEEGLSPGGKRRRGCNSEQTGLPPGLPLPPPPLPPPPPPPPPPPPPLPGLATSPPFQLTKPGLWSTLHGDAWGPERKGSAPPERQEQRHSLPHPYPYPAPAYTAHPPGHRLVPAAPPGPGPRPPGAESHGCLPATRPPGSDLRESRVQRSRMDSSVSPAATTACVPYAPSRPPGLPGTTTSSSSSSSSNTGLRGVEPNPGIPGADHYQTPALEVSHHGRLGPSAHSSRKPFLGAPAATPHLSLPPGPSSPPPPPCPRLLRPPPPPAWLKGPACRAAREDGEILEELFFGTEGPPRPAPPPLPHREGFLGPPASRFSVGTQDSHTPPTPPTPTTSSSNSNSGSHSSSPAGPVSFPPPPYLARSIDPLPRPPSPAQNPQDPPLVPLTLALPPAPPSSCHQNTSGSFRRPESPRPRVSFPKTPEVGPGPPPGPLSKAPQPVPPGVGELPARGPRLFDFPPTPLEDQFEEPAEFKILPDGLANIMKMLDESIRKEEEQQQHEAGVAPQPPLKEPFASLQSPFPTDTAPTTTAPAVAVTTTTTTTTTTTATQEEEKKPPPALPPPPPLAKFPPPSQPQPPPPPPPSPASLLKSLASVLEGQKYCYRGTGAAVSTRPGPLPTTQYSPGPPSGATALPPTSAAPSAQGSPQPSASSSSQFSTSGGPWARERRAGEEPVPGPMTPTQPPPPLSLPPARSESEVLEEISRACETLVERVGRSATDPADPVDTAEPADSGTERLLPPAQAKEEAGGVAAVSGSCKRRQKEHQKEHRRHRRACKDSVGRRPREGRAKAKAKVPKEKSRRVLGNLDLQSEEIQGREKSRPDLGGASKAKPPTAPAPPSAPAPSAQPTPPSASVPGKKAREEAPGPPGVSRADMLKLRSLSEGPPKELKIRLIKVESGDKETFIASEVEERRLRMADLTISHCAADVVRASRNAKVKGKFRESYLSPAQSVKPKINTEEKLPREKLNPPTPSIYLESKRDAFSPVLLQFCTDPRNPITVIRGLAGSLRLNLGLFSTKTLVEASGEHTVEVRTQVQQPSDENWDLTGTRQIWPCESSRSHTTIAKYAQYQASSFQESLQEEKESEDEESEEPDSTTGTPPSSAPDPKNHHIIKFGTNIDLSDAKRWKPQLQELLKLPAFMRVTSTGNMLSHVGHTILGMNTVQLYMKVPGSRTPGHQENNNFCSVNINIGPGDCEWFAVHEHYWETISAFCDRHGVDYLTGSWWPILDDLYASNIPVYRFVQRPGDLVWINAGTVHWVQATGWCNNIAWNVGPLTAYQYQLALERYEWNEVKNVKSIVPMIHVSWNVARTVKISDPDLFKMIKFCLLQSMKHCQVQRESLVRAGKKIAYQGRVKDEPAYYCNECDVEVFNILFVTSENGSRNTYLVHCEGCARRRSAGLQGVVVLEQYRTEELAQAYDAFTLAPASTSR

Plasmodium falciparum [3] = assay: microbe, parasite or virus in culture
Description: Antimalarial activity against Plasmodium falciparum

HepG2 = assay: Cytotoxicity against human HepG2 cells; format: functional, cell-based; settings: Homo sapiens, HepG2
Plasmodium falciparum [4] = assay: Antimalarial activity against CQ-resistant Plasmodium falciparum W2; format: functional, organism-based
Plasmodium falciparum [5] = assay: Antimalarial activity against CQ-sensitive Plasmodium falciparum D6; format: functional, organism-based
MCF7 = assay: Antiproliferative activity against human MCF7 cells; format: functional, cell-based; settings: Homo sapiens, MCF7
[6] = molecular target: Cathepsin B (Homo sapiens) (UniProt P07858); assay: Inhibition of human cathepsin B exopeptidase activity at 50 uM relative to control
HCT-116 = assay: Cytotoxicity against human HCT-116 cells; format: functional, cell-based
Plasmodium falciparum [7] = assay: microbe, parasite or virus in culture; settings: NF54
Description: Antimalarial activity against CQ-sensitive Plasmodium falciparum NF54

[8] = Binding affinity to human nRNP
HeLa = assay: Antiproliferative activity against human HeLa cells; format: functional, cell-based
Plasmodium falciparum [9] = assay: Antimalarial activity against CQ-resistant Plasmodium falciparum K1; format: functional, organism-based

Sequence of Hepatocyte growth factor receptor (P08581 whole entry): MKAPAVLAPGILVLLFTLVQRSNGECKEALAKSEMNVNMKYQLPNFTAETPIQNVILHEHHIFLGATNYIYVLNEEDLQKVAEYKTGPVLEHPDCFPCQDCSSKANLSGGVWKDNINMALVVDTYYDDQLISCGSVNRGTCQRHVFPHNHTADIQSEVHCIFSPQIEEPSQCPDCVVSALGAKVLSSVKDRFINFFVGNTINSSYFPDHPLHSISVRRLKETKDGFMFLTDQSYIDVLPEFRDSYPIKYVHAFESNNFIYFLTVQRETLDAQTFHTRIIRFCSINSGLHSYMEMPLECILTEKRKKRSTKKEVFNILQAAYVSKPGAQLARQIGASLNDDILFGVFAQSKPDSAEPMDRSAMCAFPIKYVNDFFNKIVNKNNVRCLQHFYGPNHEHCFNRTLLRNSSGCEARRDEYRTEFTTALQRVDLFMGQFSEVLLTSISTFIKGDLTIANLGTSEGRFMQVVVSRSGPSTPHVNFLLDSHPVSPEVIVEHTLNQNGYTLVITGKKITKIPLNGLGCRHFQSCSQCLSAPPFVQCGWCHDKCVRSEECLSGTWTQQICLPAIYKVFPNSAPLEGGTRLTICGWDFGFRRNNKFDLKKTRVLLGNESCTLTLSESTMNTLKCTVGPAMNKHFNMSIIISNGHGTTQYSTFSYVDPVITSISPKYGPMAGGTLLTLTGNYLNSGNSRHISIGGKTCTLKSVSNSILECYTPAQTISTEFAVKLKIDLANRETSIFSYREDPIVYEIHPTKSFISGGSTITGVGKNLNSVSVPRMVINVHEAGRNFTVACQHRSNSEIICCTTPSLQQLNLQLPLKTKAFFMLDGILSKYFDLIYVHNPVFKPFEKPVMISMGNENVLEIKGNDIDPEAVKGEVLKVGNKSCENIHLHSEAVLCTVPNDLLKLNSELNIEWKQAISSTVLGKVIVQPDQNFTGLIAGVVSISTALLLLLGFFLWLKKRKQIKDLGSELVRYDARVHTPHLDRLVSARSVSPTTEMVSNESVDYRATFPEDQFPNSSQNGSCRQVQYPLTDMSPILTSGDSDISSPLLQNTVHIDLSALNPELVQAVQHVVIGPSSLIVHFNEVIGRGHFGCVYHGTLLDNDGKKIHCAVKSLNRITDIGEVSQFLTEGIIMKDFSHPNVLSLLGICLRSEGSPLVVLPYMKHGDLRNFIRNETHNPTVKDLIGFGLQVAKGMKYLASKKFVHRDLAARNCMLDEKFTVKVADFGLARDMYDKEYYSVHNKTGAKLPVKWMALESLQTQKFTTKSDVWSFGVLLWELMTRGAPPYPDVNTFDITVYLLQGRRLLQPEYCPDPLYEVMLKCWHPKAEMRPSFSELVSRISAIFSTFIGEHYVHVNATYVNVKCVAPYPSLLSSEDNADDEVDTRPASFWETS

IC50 [1]: 19 nM
Compound: COc1cc2nccc(Oc3ccc(NC(=O)C4(C(=O)Nc5ccc(F)cc5)CC4)cc3)c2cc1O

inhibition [2]: 90%
Compound: COc1ncc(-c2cnc3c(C(=O)O)ccc(C(=O)O)c3c2)c(OC)n1

inhibition [2]: 0%
Compound: NS(=O)(=O)c1ccc(-c2cnc3c(C(=O)O)ccc(C(=O)O)c3c2)cc1

IC50 (Plasmodium falciparum [3]): 0.12 µg/mL (≈ 0.423 µM)
Compound: O=C(O)c1cc(-c2ccccc2)nc2ccc(Cl)cc12

IC50 (Plasmodium falciparum [3]): < 0.3 µg/mL
Compound: COc1ccccc1NC(=S)NNC(=O)c1cc(-c2ccccc2Cl)nc2ccccc12

IC50 (Plasmodium falciparum [3]): < 0.3 µg/mL
Compound: CC(C)NC(=S)NNC(=O)c1cc(-c2ccccc2Cl)nc2ccccc12

Compound: O=C(N/N=C/c1cc(O)ccc1O)c1ccc(Nc2ccnc3ccccc23)cc1
IC50 (HepG2): 27300 nM

inhibition [2]: 0%
Compound: O=C(O)c1ccc(-c2cnc3c(C(=O)O)ccc(C(=O)O)c3c2)s1

IC50 (Plasmodium falciparum [3]): < 0.3 µg/mL
Compound: O=C(NNC(=S)NC1CCCCC1)c1cc(-c2ccccc2Cl)nc2ccccc12

Compound: Cc1c(Cl)ccc2cc(/C=C/C(=O)c3csc(Cl)c3)c(Cl)nc12
IC50 (Plasmodium falciparum [4]): < 50 nM
IC50 (Plasmodium falciparum [5]): < 50 nM

IC50 (Plasmodium falciparum [3]): < 0.3 µg/mL
Compound: O=C(NNC(=S)Nc1ccc([N+](=O)[O-])cc1)c1cc(-c2ccccc2Cl)nc2ccccc12

IC50 (MCF7): 1380 nM
Compound: Cc1cc(S(=O)(=O)c2ccc(C#N)cc2)c2ccccc2n1

Compound: O=C1c2cccc(N3CCOCC3)c2C(=O)N1CCCCCCNc1ccnc2cc(Cl)ccc12
IC50 (Plasmodium falciparum [4]): 6 nM

inhibition [6]: 19.4%
Compound: CC(C)NC(=O)c1cc([N+](=O)[O-])c2cccnc2c1O

IC50 (Plasmodium falciparum [3]): 0.1 µg/mL (≈ 0.18 µM)
Compound: O=C(NNC(=S)Nc1cc(Cl)cc(Cl)c1)c1cc(-c2ccc(F)cc2F)nc2cc(Cl)c(F)cc12

Compound: O=C1c2ccc(N3CCN(CCO)CC3)cc2C(=O)N1CCCCCCNc1ccnc2cc(Cl)ccc12
IC50 (Plasmodium falciparum [4]): 6 nM

Compound: CCOC(=O)C(C#N)C(=O)c1cc(/C=C/c2ccc(N(C)C)cc2)nc2ccc(Br)cc12 (stereo unspecified)
IC50 (HepG2): 7.7 µg/mL
IC50 (HCT-116): 7.7 µg/mL (≈ 15.6 µM)

Compound: COc1ccc2nccc([C@@H](O)C3CC4CCN3CC4c3ccc(C(F)(F)F)cc3)c2c1 (mixture of isomers)
IC50 (Plasmodium falciparum [7]): 5 nM

IC50 (Plasmodium falciparum [3]): < 0.3 µg/mL
Compound: O=C(NNC(=S)Nc1ccc(Cl)cc1Cl)c1cc(-c2ccccc2Cl)nc2ccccc12

inhibition [6]: 19.4%
Compound: CCCCNC(=O)c1cc([N+](=O)[O-])c2cccnc2c1O

IC50 (Plasmodium falciparum [3]): 0.036 µg/mL (≈ 0.0807 µM)
Compound: OCc1cc(-c2cn(-c3ccc(Cl)cc3Cl)nc2-c2ccccc2)nc2ccccc12

IC50 (Plasmodium falciparum [3]): 0.1 µg/mL (≈ 0.201 µM)
Compound: O=C(NNC(=S)Nc1ccc([N+](=O)[O-])cc1)c1cc(-c2ccc(F)cc2F)nc2ccc(F)cc12

Compound: COc1cccc(NC(=S)NNC(=O)c2cc(-c3ccc(C(F)(F)F)cc3)nc3ccc(F)cc23)c1
IC50 (Plasmodium falciparum [3]): 0.1 µg/mL (≈ 0.194 µM)

Kd [8]: 4600 nM
Compound: COc1ccc(C(=O)/C=C/c2cc(N3CCOCC3)c3ccccc3n2)cc1

Compound: CCN(CC)c1ccc2c(c1)C(=O)N(CCC(=O)NCCNc1ccnc3cc(Cl)ccc13)C2=O
IC50 (Plasmodium falciparum [4]): 97 nM

Compound: CCCCCCCOc1c(OC)cc(NC(C)CCCN)c2nc(C(C)(C)C)ccc12 (stereo unspecified)
IC50 (Plasmodium falciparum [4]): 0.022 µg/mL
IC50 (Plasmodium falciparum [5]): 0.02 µg/mL

inhibition [2]: 0%
Compound: COc1ccc(F)cc1-c1cnc2c(C(=O)O)ccc(C(=O)O)c2c1

Compound: CN(C)c1ccc(/C=C/c2cc(-c3nnc(N)s3)c3cc(Br)ccc3n2)cc1
IC50 (HepG2): 7.7 µg/mL
IC50 (HCT-116): 7.7 µg/mL (≈ 17 µM)

inhibition [6]: 19.4%
Compound: COCCCNC(=O)c1cc([N+](=O)[O-])c2cccnc2c1O

inhibition [2]: 0%
Compound: COc1cc(-c2cnc3c(C(=O)O)ccc(C(=O)O)c3c2)c(OC)nn1

IC50 (MCF7): 1380 nM
Compound: Cc1ccc(S(=O)(=O)Oc2ccc(Cl)c3cccnc23)cc1

Kd [8]: 4600 nM
Compound: COc1ccc(C(=O)/C=C/c2cc(N3CCOCC3)c3cc(OC)ccc3n2)cc1

Compound: COc1ccc(C2CN3CCC2CC3[C@H](O)c2ccnc3ccc(OC)cc23)cc1 (mixture of isomers)
IC50 (Plasmodium falciparum [7]): 5 nM

Compound: N=C(N=C(N)N)SCCCCNc1ccnc2cc(Cl)ccc12
IC50 (Plasmodium falciparum [4]): 430 nM
IC50 (Plasmodium falciparum [5]): 610 nM

Compound: CN(C)C/C=C/C(=O)Nc1cc2c(Nc3ccc(F)c(Cl)c3)ncnc2cc1O[C@H]1CCOC1 [AFATINIB]
IC50 (HepG2): 5.3 µg/mL
IC50 (HCT-116): 5.3 µg/mL (≈ 10.9 µM)

IC50 (HeLa): 40 nM
Compound: N#CN=C(NCCCCCCOc1ccc(Cl)cc1)Nc1ccncc1 [CHS-828]

Kd [8]: 4600 nM
Compound: COc1ccc(C(=O)/C=C/c2cc(N3CCOCC3)c3cc(F)ccc3n2)cc1

Compound: C#Cc1ccc(-c2cn(CCNc3ccnc4cc(Cl)ccc34)nn2)cc1
IC50 (Plasmodium falciparum [9]): 160 nM
IC50 (Plasmodium falciparum [7]): 140 nM

Kd [8]: 4600 nM
Compound: O=C(/C=C/c1cc(N2CCOCC2)c2ccccc2n1)c1ccc(O)cc1

IC50 (Plasmodium falciparum [3]): 0.12 µg/mL (≈ 0.43 µM)
Compound: COc1ccc2nc(-c3ccccc3)cc(C(=O)O)c2c1

IC50 (Plasmodium falciparum [3]): 0.1 µg/mL (≈ 0.162 µM)
Compound: O=C(NNC(=S)Nc1c(F)cccc1F)c1cc(-c2ccccc2Br)nc2c(Cl)cc(C(F)(F)F)cc12

inhibition [6]: 19.4%
Compound: O=C(NCc1ccccc1)c1cc([N+](=O)[O-])c2cccnc2c1O

inhibition [6]: 19.4%
Compound: O=C(NCCO)c1cc([N+](=O)[O-])c2cccnc2c1O

Compound: O=C1c2ccc(N3CCN(CCO)CC3)cc2C(=O)N1CCCCNc1ccnc2cc(Cl)ccc12
IC50 (Plasmodium falciparum [4]): 6 nM
